# Measured values reported in patent publication US8809341B2, “2,4-pyrimidinediamine compounds and uses as anti-proliferative agents” (Rigel Pharmaceuticals, Inc., priority 2003, dated 2014).
# System: A549 cells
# Experiment: in vitro antiproliferation assay, A549 (lung)
# Type: cell-based
# Details: A549 (lung) cells, antiproliferation
# Method: The IC50 values of various compounds against a various different tumor cell lines were determined using standard in vitro antiproliferation assays. The tumor cell lines tested were as follows: A549 (lung); H1299 (lung), ACHN (kidney/p53 wt), CAKI (renal cell carcinoma), NCI-H460 (lung); HCT116 (colon/p53w0; HELA (cervix/p53 wt), HUH7 (liver/p53 wt), HUVEC (primary endothelial), LNCAP (prostate), HT-29 (colon); MCF-7 (breast); MCF-7 (breast/ER positive), MDA MB435S (breast); MDA MB231 (breast/ER negative), DU145 (prostate); BxPC-3 (pancreatic); SKOV-3 (ovarian); HepG2 (hepatic), NDHF primary normal human dermal fibroblast), SKMEL28 (breast/p53mut), SKMEL5 (breast/p53 wt), U20S (bone) and PC3 (prostate). […] A blank indicates the specified compound was not tested against the specified cell line.
row,Structure (SMILES),IC50
1,OCCOc1ccc(Nc2ncc(F)c(Nc3cccc(O)c3)n2)cc1 [compound 934],≤ 20 µM
2,CC(C)c1ccc(Nc2nc(Nc3cccc(OCCO)c3)ncc2F)cc1 [compound 935],> 20 µM
3,COC(=O)COc1ccc(Nc2ncc(F)c(Nc3ccc(C(C)C)cc3)n2)cc1 [compound 936],> 20 µM
4,CC(C)c1ccc(Nc2nc(Nc3ccc(OCCO)cc3)ncc2F)cc1 [compound 937],≤ 20 µM
5,OCCOc1cccc(Nc2nc(Nc3cccc(O)c3)ncc2F)c1 [compound 939],> 20 µM
6,Oc1c(Cl)cc(Nc2ncc(F)c(Nc3cc(Cl)c(O)c(Cl)c3)n2)cc1Cl [compound 941],> 20 µM
7,Cc1cc(Nc2ncc(F)c(Nc3cccc(O)c3)n2)cc(Cl)c1O [compound 943],≤ 20 µM
8,CC(C)(C)c1cccc(Nc2ncc(F)c(Nc3cccc(O)c3)n2)c1 [compound 951],> 20 µM
9,COc1ccc(Nc2nc(Nc3cccc(C(C)(C)C)c3)ncc2F)cc1OC [compound 953],> 20 µM
10,CCOc1cccc(Nc2ncc(F)c(Nc3cccc(C(C)C)c3)n2)c1 [compound 964],> 20 µM
11,CNC(=O)COc1cccc(Nc2ncc(F)c(Nc3cccc(C(C)C)c3)n2)c1 [compound 965],> 20 µM
12,CC(C)c1cccc(Nc2nc(Nc3cccc(OCCO)c3)ncc2F)c1 [compound 966],≤ 20 µM
13,OCCOc1cccc(Nc2ncc(F)c(Nc3ccc(CO)c(CO)c3)n2)c1 [compound 967],> 20 µM

# Same assay, conditions: A549 (lung) cells, in vitro antiproliferation
row,Structure (SMILES),IC50
1,CN(C)CCOc1ccc(Nc2ncc(F)c(Nc3cccc(O)c3)n2)cc1 [compound 693],≤ 20 µM
2,Fc1cc(Nc2ncc(F)c(Nc3ccc(C(F)(F)F)c(F)c3)n2)ccc1C(F)(F)F [compound 703],> 20 µM
3,Fc1cnc(Nc2cccc(OC(F)(F)F)c2)nc1Nc1cccc(OC(F)(F)F)c1 [compound 705],> 20 µM
4,Fc1cnc(Nc2ccc(Cl)c(C(F)(F)F)c2)nc1Nc1ccc(Cl)c(C(F)(F)F)c1 [compound 706],> 20 µM
5,CCOc1cccc(Nc2ncc(F)c(Nc3cccc(OCC)c3)n2)c1 [compound 707],≤ 20 µM
6,COc1cccc(Nc2ncc(F)c(Nc3cccc(OC)c3)n2)c1 [compound 708],≤ 20 µM
7,CCOc1ccc(Nc2nc(Nc3ccc(OC)c(OC)c3)ncc2F)cc1 [compound 709],> 20 µM
8,Oc1cccc(Nc2ncc(F)c(Nc3cccc(O)c3)n2)c1 [compound 711],≤ 20 µM
9,COc1ccc(Nc2ncc(F)c(Nc3cccc(O)c3)n2)cc1OC [compound 712],> 20 µM
10,CCOc1ccc(Nc2nc(Nc3cccc(O)c3)ncc2F)cc1 [compound 714],> 20 µM
11,COc1ccc(Nc2nc(Nc3cccc(O)c3)ncc2F)cc1OC [compound 715],≤ 20 µM
12,Fc1cnc(Nc2ccc(Cl)cc2)nc1Nc1ccc(Cl)cc1 [compound 716],> 20 µM
13,CCc1ccc(Nc2ncc(F)c(Nc3ccc(CC)cc3)n2)cc1 [compound 722],> 20 µM
14,COC(=O)COc1ccc(Nc2ncc(F)c(Nc3ccc(OCC(=O)OC)cc3)n2)cc1 [compound 723],≤ 20 µM
15,COc1ccc(Nc2ncc(F)c(Nc3ccc(OC)c(O)c3)n2)cc1O [compound 725],≤ 20 µM
16,CCOC(=O)COc1ccc(Nc2ncc(F)c(Nc3cccc(O)c3)n2)cc1 [compound 729],> 20 µM

row,Structure (SMILES),IC50
1,Oc1ccc(Nc2ncc(F)c(Nc3ccc(O)cc3)n2)cc1 [compound 730],≤ 20 µM
2,Cc1cc(Nc2ncc(F)c(Nc3ccc(O)c(C)c3)n2)ccc1O [compound 731],> 20 µM
3,O=C(O)COc1ccc(Nc2ncc(F)c(Nc3ccc(OCC(=O)O)cc3)n2)cc1 [compound 733],> 20 µM
4,CNC(=O)COc1ccc(Nc2ncc(F)c(Nc3ccc(OCC(=O)O)cc3)n2)cc1 [compound 734],> 20 µM
5,O=C(O)COc1ccc(Nc2ncc(F)c(Nc3cccc(Cl)c3)n2)cc1 [compound 736],> 20 µM
6,CCOC(=O)COc1ccc(Nc2ncc(F)c(Nc3ccc(OCC(=O)OCC)cc3)n2)cc1 [compound 737],> 20 µM
7,COC(=O)COc1ccc(Nc2ncc(F)c(Nc3ccc(OCC(=O)OC(C)(C)C)cc3)n2)cc1 [compound 738],> 20 µM
8,CC(C)(C)OC(=O)COc1ccc(Nc2ncc(F)c(Nc3ccc(OCC(=O)OC(C)(C)C)cc3)n2)cc1 [compound 739],> 20 µM
9,COc1cc(Nc2ncc(F)c(Nc3cc(OC)c(OC)c(OC)c3)n2)cc(OC)c1OC [compound 743],> 20 µM
10,Oc1cccc(Nc2nc(Nc3ccc(OCCN4CCOCC4)cc3)ncc2F)c1 [compound 744],≤ 20 µM
11,CC(C)Oc1ccc(Nc2ncc(F)c(Nc3ccc(OC(C)C)cc3)n2)cc1 [compound 745],> 20 µM
12,COc1cc(Nc2ncc(F)c(Nc3cccc(O)c3)n2)cc(OC)c1OC [compound 760],> 20 µM
13,CNC(=O)COc1cccc(Nc2ncc(F)c(Nc3cccc(C(F)(F)F)c3)n2)c1 [compound 770],≤ 20 µM
14,CNC(=O)COc1cccc(Nc2nc(Nc3cc(OC)cc(OC)c3)ncc2F)c1 [compound 771],≤ 20 µM
15,CNC(=O)COc1cccc(Nc2ncc(F)c(Nc3ccc(OC)c(Cl)c3)n2)c1 [compound 788],≤ 20 µM

# Same assay, conditions: Homo sapiens; IC50 class against A549 (lung) tumor cells
row,Structure (SMILES),IC50
1,CC(C)(C)c1cc(Nc2nc(Nc3cccc(N4CCOCC4)c3)ncc2F)n[nH]1 [compound 199],≤ 20 µM

# Same assay, conditions: Table 5; in vitro antiproliferation, A549 (lung) cells
row,Structure (SMILES),IC50
1,O=C(COc1ccc(Nc2ncc(F)c(Nc3ccc4c(c3)OCCO4)n2)cc1)NCCO [compound 474],> 20 µM
2,CCCCCCOc1ccc(Nc2ncc(F)c(Nc3ccc4c(c3)OCCO4)n2)cc1 [compound 477],> 20 µM
3,CCOc1ccc(Nc2ncc(F)c(Nc3ccc4c(c3)OCCO4)n2)cc1 [compound 478],≤ 20 µM
4,CCCCOc1ccc(Nc2ncc(F)c(Nc3ccc4c(c3)OCCO4)n2)cc1 [compound 479],> 20 µM
5,CCOC(=O)COc1ccc(Nc2ncc(F)c(Nc3ccc4c(c3)OCCO4)n2)cc1 [compound 480],> 20 µM
6,CN(C)C(=O)COc1cccc(Nc2ncc(F)c(Nc3ccc4c(c3)OCCO4)n2)c1 [compound 481],> 20 µM
7,Oc1cccc(Nc2ncc(F)c(Nc3ccc4c(c3)OCCO4)n2)c1 [compound 482],> 20 µM
8,Fc1ccc(Nc2ncc(F)c(Nc3ccc4c(c3)OCCO4)n2)cc1Cl [compound 485],> 20 µM
9,Fc1ccc(Nc2ncc(F)c(Nc3ccc4c(c3)OCCO4)n2)cc1 [compound 487],> 20 µM
10,CCc1ccc(Nc2ncc(F)c(Nc3ccc4c(c3)OCCO4)n2)cc1 [compound 489],> 20 µM
11,O=C(O)COc1ccc(Nc2ncc(F)c(Nc3ccc4c(c3)OCCO4)n2)cc1 [compound 490],> 20 µM
12,CC(=O)COc1cccc(Nc2ncc(F)c(Nc3ccc4c(c3)OCCO4)n2)c1 [compound 492],> 20 µM
13,CNCCOc1cccc(Nc2ncc(F)c(Nc3ccc4c(c3)OCCO4)n2)c1 [compound 498],> 20 µM
14,Fc1cnc(Nc2cccc(C(F)(F)F)c2)nc1Nc1ccc2c(c1)OCCO2 [compound 514],> 20 µM
15,O=C(COc1cccc(Nc2ncc(F)c(Nc3ccc4c(c3)OCCO4)n2)c1)NC1CC1 [compound 520],≤ 20 µM
16,OCCOc1cccc(Nc2ncc(F)c(Nc3ccc4c(c3)OCCO4)n2)c1 [compound 576],≤ 20 µM
17,COC(=O)COc1cccc(Nc2ncc(F)c(Nc3ccc4c(c3)OCCO4)n2)c1 [compound 586],> 20 µM
18,OCCOc1ccc(Nc2ncc(F)c(Nc3ccc4c(c3)OCCO4)n2)cc1 [compound 587],≤ 20 µM

# Same assay, conditions: Table 7; in vitro antiproliferation, A549 (lung) cells
row,Structure (SMILES),IC50
1,CCOC(=O)c1cc2cc(Nc3ncc(F)c(Nc4ccc(C(C)(C)C)cc4)n3)ccc2[nH]1 [compound 617],> 20 µM
2,CCOC(=O)c1cc2cc(Nc3ncc(F)c(Nc4ccc5c(c4)OCCO5)n3)ccc2[nH]1 [compound 618],≤ 20 µM
3,COC(=O)c1cc2cc(Nc3ncc(F)c(Nc4ccc(C(C)(C)C)cc4)n3)ccc2o1 [compound 619],> 20 µM
4,O=C(O)c1cc2cc(Nc3ncc(F)c(Nc4cccc(O)c4)n3)ccc2[nH]1 [compound 621],> 20 µM
5,CC(C)(C)c1ccc(Nc2nc(Nc3ccc4oc(C(=O)O)cc4c3)ncc2F)cc1 [compound 622],> 20 µM
6,COC(=O)c1cc2cc(Nc3ncc(F)c(Nc4cccc(OC(C)C)c4)n3)ccc2o1 [compound 623],> 20 µM
7,O=C(c1cc2cc(Nc3ncc(F)c(Nc4cccc(O)c4)n3)ccc2o1)N1CCOCC1 [compound 624],> 20 µM
8,CNC(=O)c1cc2cc(Nc3ncc(F)c(Nc4cccc(O)c4)n3)ccc2o1 [compound 627],> 20 µM
9,CNC(=O)c1cc2cc(Nc3ncc(F)c(Nc4ccc(C(C)(C)C)cc4)n3)ccc2o1 [compound 628],> 20 µM
10,O=C(NCCO)c1cc2cc(Nc3ncc(F)c(Nc4cccc(O)c4)n3)ccc2o1 [compound 630],> 20 µM
11,COC(=O)c1cc2cc(Nc3ncc(F)c(Nc4ccc5c(c4)OCCO5)n3)ccc2o1 [compound 638],> 20 µM
12,O=C(O)c1cc2cc(Nc3ncc(F)c(Nc4ccc5c(c4)OCCO5)n3)ccc2o1 [compound 639],> 20 µM
13,CC(C)Oc1ccc(Nc2nc(Nc3ccc4oc(C(=O)N5CCCC5)cc4c3)ncc2F)cc1 [compound 640],> 20 µM
14,COC(=O)c1cc2cc(Nc3ncc(F)c(Nc4ccc(OC(C)C)cc4)n3)ccc2o1 [compound 641],> 20 µM
15,CNC(=O)c1cc2cc(Nc3ncc(F)c(Nc4cccc(C(C)(C)C)c4)n3)ccc2o1 [compound 675],> 20 µM

# Same assay, conditions: in vitro antiproliferation, A549 (lung) cells; Table 4; compounds with no designated stereochemistry tested as racemate
row,Structure (SMILES),IC50
1,CC1(C)Oc2ccc(Nc3nc(Nc4cc(Cl)cc(Cl)c4)ncc3F)cc2NC1=O [compound 308],≤ 20 µM
